# Source: PubChem BioAssay (NCI)
#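 1) Cells in 96-well plates. 2) Compound, 48 h, 5 concentrations. 3) Linear interpolation between surrounding doses. 4) Unreached endpoint = highest concentration. The concentration for full growth arrest is given as TGI.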
# What was measured:
# Assay in all cases: NCI-60 cell line screen, 48 h
# 786-0 renal = test system: 786-0 renal
# A549 NSCLC = test system: A549 NSCLC
# ACHN renal = test system: ACHN renal
# CAKI-1 renal = test system: CAKI-1 renal
# CCRF-CEM leukemia = test system: CCRF-CEM leukemia
# COLO 205 colon = test system: COLO 205 colon
# DLD-1 colon = test system: DLD-1 colon
# DMS 114 small cell lung = test system: DMS 114 small cell lung
# DMS 273 small cell lung = test system: DMS 273 small cell lung
# EKVX NSCLC = test system: EKVX NSCLC
# HCC-2998 colon = test system: HCC-2998 colon
# HCT-15 colon = test system: HCT-15 colon
# HL-60(TB) leukemia = test system: HL-60(TB) leukemia
# HOP-62 NSCLC = test system: HOP-62 NSCLC
# HOP-92 NSCLC = test system: HOP-92 NSCLC
# HT29 colon = test system: HT29 colon
# IGROV1 ovarian = test system: IGROV1 ovarian
# K-562 leukemia = test system: K-562 leukemia
# KM12 colon = test system: KM12 colon
# KM20L2 colon = test system: KM20L2 colon
# LOX IMVI melanoma = test system: LOX IMVI melanoma
# LXFL 529 NSCLC = test system: LXFL 529 NSCLC
# M14 melanoma = test system: M14 melanoma
# M19-MEL melanoma = test system: M19-MEL melanoma
# MALME-3M melanoma = test system: MALME-3M melanoma
# MOLT-4 leukemia = test system: MOLT-4 leukemia
# NCI-H23 lung = test system: NCI-H23 lung
# NCI-H460 lung = test system: NCI-H460 lung
# NCI-H522 lung = test system: NCI-H522 lung
# OVCAR-3 ovarian = test system: OVCAR-3 ovarian
# OVCAR-4 ovarian = test system: OVCAR-4 ovarian
# OVCAR-5 ovarian = test system: OVCAR-5 ovarian
# OVCAR-8 ovarian = test system: OVCAR-8 ovarian
# RPMI-8226 leukemia = test system: RPMI-8226 leukemia
# RXF 393 renal = test system: RXF 393 renal
# RXF-631 renal = test system: RXF-631 renal
# SF-268 CNS = test system: SF-268 CNS
# SF-295 CNS = test system: SF-295 CNS
# SF-539 CNS = test system: SF-539 CNS
# SK-MEL-2 melanoma = test system: SK-MEL-2 melanoma
# SK-MEL-28 melanoma = test system: SK-MEL-28 melanoma
# SK-MEL-5 melanoma = test system: SK-MEL-5 melanoma
# SK-OV-3 ovarian = test system: SK-OV-3 ovarian
# SN12C renal = test system: SN12C renal
# SNB-19 CNS = test system: SNB-19 CNS
# SNB-75 CNS = test system: SNB-75 CNS
# SNB-78 CNS = test system: SNB-78 CNS
# SW-620 colon = test system: SW-620 colon
# TK-10 renal = test system: TK-10 renal
# UACC-257 melanoma = test system: UACC-257 melanoma
# UACC-62 melanoma = test system: UACC-62 melanoma
# UO-31 renal = test system: UO-31 renal
# XF 498 CNS = test system: XF 498 CNS
# HCT-116 colon = test system: HCT-116 colon
# HOP-18 NSCLC = test system: HOP-18 NSCLC
# NCI-H226 lung = test system: NCI-H226 lung
# U251 CNS = test system: U251 CNS
structure (smiles),measurement,setting,value
C1=CC(=P(c2ccccc2)(c2ccccc2)c2ccccc2)C=C1,TGI,786-0 renal,28.8 µM
same,TGI,A549 NSCLC,79.7 µM
same,TGI,ACHN renal,28.2 µM
same,TGI,CAKI-1 renal,32.3 µM
same,TGI,CCRF-CEM leukemia,13.4 µM
same,TGI,COLO 205 colon,14.8 µM
same,TGI,DLD-1 colon,62.5 µM
same,TGI,DMS 114 small cell lung,15.9 µM
same,TGI,DMS 273 small cell lung,26.4 µM
same,TGI,EKVX NSCLC,82.5 µM
same,TGI,HCC-2998 colon,24.3 µM
same,TGI,HCT-15 colon,> 100 µM
same,TGI,HL-60(TB) leukemia,9.01 µM
same,TGI,HOP-62 NSCLC,41.6 µM
same,TGI,HOP-92 NSCLC,22.8 µM
same,TGI,HT29 colon,23.7 µM
same,TGI,IGROV1 ovarian,24.6 µM
same,TGI,K-562 leukemia,11.3 µM
same,TGI,KM12 colon,24.4 µM
same,TGI,KM20L2 colon,31.1 µM
same,TGI,LOX IMVI melanoma,24.6 µM
same,TGI,LXFL 529 NSCLC,13 µM
same,TGI,M14 melanoma,24.3 µM
same,TGI,M19-MEL melanoma,14.2 µM
same,TGI,MALME-3M melanoma,17.4 µM
same,TGI,MOLT-4 leukemia,23.4 µM
same,TGI,NCI-H23 lung,54.3 µM
same,TGI,NCI-H460 lung,26 µM
same,TGI,NCI-H522 lung,10.1 µM
same,TGI,OVCAR-3 ovarian,23.7 µM
same,TGI,OVCAR-4 ovarian,31.5 µM
same,TGI,OVCAR-5 ovarian,28.6 µM
same,TGI,OVCAR-8 ovarian,69.2 µM
same,TGI,RPMI-8226 leukemia,11 µM
same,TGI,RXF 393 renal,28.2 µM
same,TGI,RXF-631 renal,46.7 µM
same,TGI,SF-268 CNS,75.1 µM
same,TGI,SF-295 CNS,30.8 µM
same,TGI,SF-539 CNS,29.1 µM
same,TGI,SK-MEL-2 melanoma,30.3 µM
same,TGI,SK-MEL-28 melanoma,19.6 µM
same,TGI,SK-MEL-5 melanoma,30.3 µM
same,TGI,SK-OV-3 ovarian,35.3 µM
same,TGI,SN12C renal,43.4 µM
same,TGI,SNB-19 CNS,31.6 µM
same,TGI,SNB-75 CNS,20.8 µM
same,TGI,SNB-78 CNS,26.7 µM
same,TGI,SW-620 colon,56 µM
same,TGI,TK-10 renal,50.9 µM
same,TGI,UACC-257 melanoma,20.3 µM
same,TGI,UACC-62 melanoma,20 µM
same,TGI,UO-31 renal,30.8 µM
same,TGI,XF 498 CNS,12.6 µM
Cc1ccc(C2=CC(=O)c3ccccc3C2=O)n1-c1ccccc1,TGI,786-0 renal,> 100 µM
same,TGI,A549 NSCLC,> 100 µM
same,TGI,CCRF-CEM leukemia,84.5 µM
same,TGI,COLO 205 colon,> 100 µM
same,TGI,DLD-1 colon,> 100 µM
same,TGI,DMS 114 small cell lung,55.2 µM
same,TGI,DMS 273 small cell lung,> 100 µM
same,TGI,EKVX NSCLC,> 100 µM
same,TGI,HCC-2998 colon,> 100 µM
same,TGI,HCT-116 colon,> 100 µM
same,TGI,HL-60(TB) leukemia,94.2 µM
same,TGI,HOP-18 NSCLC,> 100 µM
same,TGI,HOP-62 NSCLC,> 100 µM
same,TGI,HT29 colon,> 100 µM
same,TGI,IGROV1 ovarian,> 100 µM
same,TGI,K-562 leukemia,> 100 µM
same,TGI,KM12 colon,> 100 µM
same,TGI,KM20L2 colon,> 100 µM
same,TGI,LOX IMVI melanoma,> 100 µM
same,TGI,LXFL 529 NSCLC,> 100 µM
same,TGI,M14 melanoma,> 100 µM
same,TGI,M19-MEL melanoma,> 100 µM
same,TGI,MOLT-4 leukemia,98.5 µM
same,TGI,NCI-H226 lung,84.8 µM
same,TGI,NCI-H23 lung,> 100 µM
same,TGI,NCI-H460 lung,> 100 µM
same,TGI,NCI-H522 lung,> 100 µM
same,TGI,OVCAR-3 ovarian,> 100 µM
same,TGI,OVCAR-4 ovarian,96.6 µM
same,TGI,OVCAR-8 ovarian,> 100 µM
same,TGI,RPMI-8226 leukemia,> 100 µM
same,TGI,RXF 393 renal,> 100 µM
same,TGI,SF-268 CNS,> 100 µM
same,TGI,SF-295 CNS,> 100 µM
same,TGI,SF-539 CNS,> 100 µM
same,TGI,SK-MEL-28 melanoma,> 100 µM
same,TGI,SK-MEL-5 melanoma,> 100 µM
same,TGI,SK-OV-3 ovarian,> 100 µM
same,TGI,SN12C renal,> 100 µM
same,TGI,SNB-19 CNS,> 100 µM
same,TGI,SNB-75 CNS,> 100 µM
same,TGI,SNB-78 CNS,> 100 µM
same,TGI,SW-620 colon,> 100 µM
same,TGI,TK-10 renal,> 100 µM
same,TGI,U251 CNS,> 100 µM
same,TGI,UACC-62 melanoma,> 100 µM
same,TGI,XF 498 CNS,> 100 µM
